Results reported in article PMC5606850, “Acidic C-terminal domains autoregulate the RNA chaperone Hfq” (eLife, 2017).

Tested on: ChiX sRNA and chiP mRNA
Assay: ChiX sRNA-chiP mRNA annealing, EMSA
Assay type: biochemical, E. coli
Details: 10 °C; for time to form ternary complex with ChiX and chiP: 5 nM ChiX, 30 nM chiP; for stability of ChiX·Hfq·chiP ternary complex: 33.3 nM Hfq hexamer, TNK buffer
Protocol: Figure 4. Shortening the CTD increases auto-inhibition by acidic residues. (A) Observed annealing rate constants for 100 nM target RNA and 50 nM molecular beacon with 0–200 nM Hfq hexamer at 30°C, measured by stopped-flow fluorescence. Black, Hfq102; red, Hfq-sCTD; cyan, Hfq65. (B) Fluorescence anisotropy assay for RNA binding and release. In stopped-flow FRET experiments, the dsRNA is released after pairing with its complementary strand ([Panja et al., 2013]; [Santiago-Frangos et al., 2016]). […] Remaining RNA was displaced from Hfq by excess ssDNA (400 nM DNA2). The averages and standard deviations for three trials are plotted for each Hfq variant. […] (D) Annealing of 5 nM ^32P-ChiX sRNA with 30 nM chiP mRNA without Hfq, or with Hfq65, Hfq102 or Hfq-sCTD, as indicated above each lane. Samples were loaded on a native polyacrylamide gel 60 min or 20 s after the components were mixed. Full gel images are in Figure 4—figure supplement 2. (E) Fractions of free ChiX (black), ChiX·chiP dsRNA (light grey), ChiX·Hfq·chiP ternary complex (hatched) and ChiX·Hfq binary complex (dark grey) after 4 min of annealing, as analyzed by EMSA (Figure 4—figure supplement 2). Figure 4—figure supplement 1. Effect of CTD length on RNA oligomer annealing kinetics. Annealing of 100 nM Target RNA to 50 nM beacon RNA by Hfq variants was measured by stopped flow fluorescence at 30°C in 1 × TNK buffer. (A) Target RNA annealed by Hfq65 (no CTD), Hfq102 (complete CTD) or Hfq-sCTD (shortened linker CTD). (B) Target-U6 (proximal) annealed by Hfq65, Hfq102 or Hfq-sCTD. (C) Target-A18 annealed Hfq65, Hfq102 or Hfq-sCTD. The change in fluorescence emission intensity was normalized to the maximum fluorescence within an experiment. The average of five measurements is shown per progress curve. Annealing data were also collected for 0–200 nM Hfq hexamer. All progress curves were fitted to single- or double-exponential rate equations to obtain kobs, as previously described ([Santiago-Frangos et al., 2016]). [drawing 7] Figure 4—figure supplement 2. Effect of CTD length on sRNA·mRNA annealing. EMSAs of the annealing of 5 nM ^32P-ChiX to 30 nM chiP ([Rasmussen et al., 2009]) at 10°C in 1 × TNK buffer. Reactions were done (A) without Hfq, or with 33.3 nM hexamer (B) Hfq102, (C) Hfq65 or (D) Hfq-sCTD, Control reactions with ChiX only, ChiX and chiP mRNA, ChiX and Hfq or three components were loaded at the beginning (left) and end (right) of each time course, as indicated above the lanes. In the absence of Hfq, only 20% of ChiX·chiP annealed after 30 min. In the presence of all Hfq variants, at least 50% ChiX was in a ternary complex containing ChiX·Hfq·chiP within 1 min, and annealing reached a plateau within 2 min.
To determine whether the above results on RNA oligomers apply to natural RNA substrates for Hfq, we examined the annealing of the Class II sRNA ChiX to the mRNA chiP via electrophoretic mobility shift assays (EMSAs). Because the mRNA targets of class II sRNAs interact with the rim of Hfq ([Schu et al., 2015]; [Małecka et al., 2015]), we reasoned that this sRNA-mRNA pair would be sensitive to displacement by the CTD. Low nanomolar amounts of ChiX and chiP anneal very slowly at 10°C, in the absence of Hfq (Figure 4—figure supplement 2). Whereas, Hfq102, Hfq65 and Hfq-sCTD all form a ternary complex with ChiX and chiP within 20 s (Figure 4D), reaching equilibrium in a few minutes (Figure 4—figure supplement 2). […] Less ternary complex was formed by Hfq102, and the least by Hfq-sCTD.

Substance	time to form ternary complex with ChiX and chiP [s]	stability of ChiX·Hfq·chiP ternary complex	ChiX-Hfq binary complex remaining (after 20 s)
Hfq65: truncated E. coli Hfq variant lacking the CTD	≤ 20	most stable	almost no ChiX-Hfq65 binary complex remaining after 20 s
Hfq102: full-length E. coli Hfq	≤ 20	medium	
